1 compound from patent publication US7160909B2, “Cyclopenta[b]indole derivatives as sPLA2 inhibitors” (Eli Lilly and Company, priority 2001, dated 2007) can be followed below.

The target in the assay is T1, recombinant human secreted phospholipase A2 (Homo sapiens, UniProt P14555).
T1 sequence (P14555 21-144): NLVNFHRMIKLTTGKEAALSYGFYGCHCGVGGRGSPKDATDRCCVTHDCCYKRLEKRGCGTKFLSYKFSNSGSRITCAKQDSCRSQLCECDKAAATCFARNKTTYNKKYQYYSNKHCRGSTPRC
In words: chromogenic assay of recombinant human secreted phospholipase A2. The settings on record: diheptanoyl thio-PC substrate, pH 7.5, 40° C. for 30 minutes, absorbance at 405 nanometers, triplicate. The class given is biochemical. The text has this: The following chromogenic assay procedure was used to identify and evaluate inhibitors of recombinant human secreted phospholipase A2. The assay described herein has been adapted for high volume screening using 96 well microtiter plates. A general description of this assay method is found in the article, “Analysis of Human Synovial Fluid Phospholipase A2 on Short Chain Phosphatidylcholine-Mixed Micelles: Development of a Spectrophotometric Assay Suitable for a Microtiterplate Reader”, by Laure J. Reynolds, Lori L. Hughes, and Edward A Dennis, Analytical Biochemistry, 204, pp. 190–197, 1992 (the disclosure of which is incorporated herein by reference): […]
A measured volume of racemic dipheptanoyl thio PC supplied in chloroform at a concentration of 100 mg/ml is taken to dryness and redissolved in 10 millimolar TRITON X-100™ nonionic detergent aqueous solution. […]
• 1. […] Read absorbance of wells at 405 nanometers with an automatic plate reader.
Tests were done in triplicate. […] Compounds initially found to be active were re-assayed to confirm their activity and, if sufficiently active, IC50 values were determined. […] In all cases, % inhibition measured at 405 nanometers generated by enzyme reactions containing inhibitors relative to the uninhibited control reactions was determined. […]

As to `NC(=O)C1CCc2c1c1c(OCC(=O)O)cccc1n2Cc1ccccc1` (stereo not shown) [Example 1, (4-Benzyl-1-carbamoyl-1,2,3,4-tetrahydro-cyclopenta[b]indol-8-yloxy)-acetic acid], the IC50 (commonly the midpoint of a concentration-inhibition curve) was determined as 0.046 µM.
